Paper PMC10176470, “Engaging a Non-catalytic Cysteine Residue Drives Potent and Selective Inhibition of Caspase-6” (Journal of the American Chemical Society, 2023)

Key:
[1] = target: T1, caspase-3 (C3) (Homo sapiens, UniProt P42574); assay: Caspase-3 biochemical activity assay with fluorogenic substrate; conditions: read-out: Casp-3 IC50
T1 sequence (P42574 29-175 limits assumed): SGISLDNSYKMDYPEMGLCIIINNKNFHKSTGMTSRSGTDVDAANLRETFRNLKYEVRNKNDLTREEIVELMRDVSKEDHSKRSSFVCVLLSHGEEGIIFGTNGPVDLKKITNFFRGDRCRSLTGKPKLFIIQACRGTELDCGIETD
Excerpt: Error bars represent the standard deviation of thre replicate measurements. […] Activity measured by the cleavage of aminofluorocoumarin-labeled peptides (see the Supporting Information for sequences). C = caspase.

[2] = system: lamin A cleavage by caspase-6 in SK-N-AS cells; assay: Lamin cleavage assay (in-cell western after staurosporine induction); type: cell-based; conditions: Homo sapiens, 1 h compound then 10 μM staurosporine
[3] = target: T2, C6 small subunit (Homo sapiens, UniProt P55212); assay: Disulfide tethering assay (% labeling by LC/MS), small subunit; type: binding
T2 construct: 194-293-Leu-Glu-His6 (SS) from caspase-6 cDNA (Origene); Leu-Glu-His6 (C); made in house; host or cells: E. coli Rosetta 2 pLysS DE3
T2 sequence (P55212 194-293): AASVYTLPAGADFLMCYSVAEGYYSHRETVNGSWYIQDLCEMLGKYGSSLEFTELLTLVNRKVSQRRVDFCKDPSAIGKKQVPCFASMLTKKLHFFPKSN
T2 sequence (P55212 30-179): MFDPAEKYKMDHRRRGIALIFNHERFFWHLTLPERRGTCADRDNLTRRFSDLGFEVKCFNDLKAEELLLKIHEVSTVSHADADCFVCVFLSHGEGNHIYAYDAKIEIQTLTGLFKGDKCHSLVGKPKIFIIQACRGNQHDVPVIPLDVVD

[4] = target: T3, C6 large subunit (Homo sapiens, UniProt P55212); assay: Disulfide tethering assay (% labeling by LC/MS), large subunit; type: binding
T3 construct: Residues 30-179 (LS); made in house; host or cells: E. coli Rosetta 2 pLysS DE3
T3 sequence (P55212 30-179): as above
T3 sequence (P55212 194-293): as the sequence (P55212 194-293) above

| IC50 [1] | IC50 [2] | C6 % labeling (MS) small subunit [3] | C6 % labeling (MS) large subunit [4] | Compound |
| --- | --- | --- | --- | --- |
| > 500 µM | – | – | – | C=CS(=O)(=O)N1C[C@H](C(=O)Nc2ccc(OC(F)(F)F)cc2)C[C@H](c2ccccc2)C1 (racemic) [(±)-3-c] |
| > 500 µM | 14.2 ± 2.4 µM | – | – | C=CS(=O)(=O)N1CCC[C@@H](C(=O)Nc2ccc(OC(F)(F)F)cc2)C1 [2a] |
| – | – | 76% | 2% | O=C(NCCS)[C@H]1CCCN(C(=O)Cc2ccc(OC(F)(F)F)cc2)C1 [compound 1] |

| Compound | IC50 [1] | IC50 [2] | C6 % labeling (MS) small subunit [3] | C6 % labeling (MS) large subunit [4] |
| --- | --- | --- | --- | --- |
| C=CS(=O)(=O)N1C[C@H](C(=O)Nc2ccc(OC(F)(F)F)cc2)C[C@@H](c2ccccc2)C1 (racemic) [(±)-3-t] | > 500 µM | – | – | – |
